Assay results taken from patent US7161031B2, “Amino-substituted sulfonanilides and derivatives thereof for treating proliferative disorders” (Temple University - Of The Commonwealth System of Higher …, priority 2002, dated 2007).

Legend:
Test in all cases: Tumor cell killing, viable cell count by trypan blue exclusion
Type in all cases: cell-based
DU145 tumor cell line = details: DU145 cells, viable cells counted 96 hours after treatment
Experimental: (§1) The effect of the amino-substituted sulfonanilides on normal fibroblasts and on tumor cells may be determined by the assay described by Latham et al., Oncogene 12:827–837 (1996). Normal diploid lung human fibroblasts (HFL-1) or tumor cells (e.g., prostate, colorectal, breast, glial, pancreatic, ovarian, lung or leukemic) are plated in 6-well dishes at a cell density of 1.0×10^5 cells per […]. The plated cells are treated 24 hours later with various concentrations of amino-substituted sulfonanilide dissolved in dimethyl sulfoxide (DMSO). The total number of viable cells is determined 96 hours later by trypsinizing the wells and counting the number of viable cells, as determined by trypan blue exclusion, using a hemacytometer. Normal HFL cells are treated with the same compounds under the same conditions of concentration and time. Biological data for compounds of the present invention is shown in Table 5 below in DU145, BT20, DLD1 and H157 tumor cell lines.

H157 tumor cell line = details: H157 cells, viable cells counted 96 hours after treatment
Experimental: as §1

BT20 tumor cell line = details: BT20 cells, viable cells counted 96 hours after treatment
Experimental: as §1

DLD1 tumor cell line = details: DLD1 cells, viable cells counted 96 hours after treatment
Experimental: as §1

Compound | tumor cell killing activity DU145 (DU145 tumor cell line) | tumor cell killing activity H157 (H157 tumor cell line) | tumor cell killing activity BT20 (BT20 tumor cell line) | tumor cell killing activity DLD1 (DLD1 tumor cell line)
COc1cc(OC)c(/C=C/S(=O)(=O)Nc2ccc(OC)c(NC(=O)CO)c2)c(OC)c1 [Example 6, (E)-2,4,6-Trimethoxystyryl-N-[(3-hydroxyacetamido)-4-methoxy-phenyl]sulfonamide] | + (A (+) in the table indicates that the compound showed tumor cell killing activity at a concentration of less than 20 micromolar) | + (A (+) in the table indicates that the compound showed tumor cell killing activity at a concentration of less than 20 micromolar) | + (A (+) in the table indicates that the compound showed tumor cell killing activity at a concentration of less than 20 micromolar) | + (A (+) in the table indicates that the compound showed tumor cell killing activity at a concentration of less than 20 micromolar)
COc1cc(OC)c(/C=C/S(=O)(=O)Nc2ccc(OC)c(NC(=O)CCl)c2)c(OC)c1 [Example 7, (E)-2,4,6-Trimethoxystyryl-N-[(3-chloroacetamido)-4-methoxyphenyl]-sulfonamide] | + (A (+) in the table indicates that the compound showed tumor cell killing activity at a concentration of less than 20 micromolar) | + (A (+) in the table indicates that the compound showed tumor cell killing activity at a concentration of less than 20 micromolar) | + (A (+) in the table indicates that the compound showed tumor cell killing activity at a concentration of less than 20 micromolar) | + (A (+) in the table indicates that the compound showed tumor cell killing activity at a concentration of less than 20 micromolar)
COc1cc(OC)c(/C=C/S(=O)(=O)Nc2ccc(OC)c(NC(=O)CN3CCN(C)CC3)c2)c(OC)c1 [Example 8, (E)-2,4,6-Trimethoxystyryl-N-[3-(4-methylpiperazinyl)-acetamido-4-methoxyphenyl]sulfonamide] | + (A (+) in the table indicates that the compound showed tumor cell killing activity at a concentration of less than 20 micromolar) | + (A (+) in the table indicates that the compound showed tumor cell killing activity at a concentration of less than 20 micromolar) | + (A (+) in the table indicates that the compound showed tumor cell killing activity at a concentration of less than 20 micromolar) | + (A (+) in the table indicates that the compound showed tumor cell killing activity at a concentration of less than 20 micromolar)
COc1cc(OC)c(/C=C/S(=O)(=O)Nc2ccc(OC)c(NCC(=O)N(C)C)c2)c(OC)c1 [Example 1, (E)-2,4,6-Trimethoxystyryl-N-[(3-N,N-dimethylacetamido)-4-methoxyphenyl]sulfonamide] | + (A (+) in the table indicates that the compound showed tumor cell killing activity at a concentration of less than 20 micromolar) | + (A (+) in the table indicates that the compound showed tumor cell killing activity at a concentration of less than 20 micromolar) | + (A (+) in the table indicates that the compound showed tumor cell killing activity at a concentration of less than 20 micromolar) | + (A (+) in the table indicates that the compound showed tumor cell killing activity at a concentration of less than 20 micromolar)
COc1cc(OC)c(/C=C/S(=O)(=O)Nc2ccc(OC)c(NC(=O)COC(C)=O)c2)c(OC)c1 [Example 4, (E)-2,4,6-Trimethoxystyryl-N-[(3-acetoxyacetamido)-4-methoxy-phenyl]sulfonamide] | + (A (+) in the table indicates that the compound showed tumor cell killing activity at a concentration of less than 20 micromolar) | + (A (+) in the table indicates that the compound showed tumor cell killing activity at a concentration of less than 20 micromolar) | + (A (+) in the table indicates that the compound showed tumor cell killing activity at a concentration of less than 20 micromolar) | + (A (+) in the table indicates that the compound showed tumor cell killing activity at a concentration of less than 20 micromolar)
(E)-2,4,6-Trimethoxystyryl-N-[(3-amino)-4-methoxyphenyl]-sulfonamide-L-lysineamide hydrochloride [Example 3] | + (A (+) in the table indicates that the compound showed tumor cell killing activity at a concentration of less than 20 micromolar) | + (A (+) in the table indicates that the compound showed tumor cell killing activity at a concentration of less than 20 micromolar) | + (A (+) in the table indicates that the compound showed tumor cell killing activity at a concentration of less than 20 micromolar) | + (A (+) in the table indicates that the compound showed tumor cell killing activity at a concentration of less than 20 micromolar)
COc1cc(OC)c(/C=C/S(=O)(=O)Nc2ccc(OC)c(NC(C)=O)c2)c(OC)c1 [Example 2, (E)-2,4,6-Trimethoxystyryl-N-[(3-acetamido)4-methoxyphenyl]-sulfonamide] | + (A (+) in the table indicates that the compound showed tumor cell killing activity at a concentration of less than 20 micromolar) | + (A (+) in the table indicates that the compound showed tumor cell killing activity at a concentration of less than 20 micromolar) | + (A (+) in the table indicates that the compound showed tumor cell killing activity at a concentration of less than 20 micromolar) | + (A (+) in the table indicates that the compound showed tumor cell killing activity at a concentration of less than 20 micromolar)
COc1cc(OC)c(/C=C/S(=O)(=O)Nc2ccc(OC)c(NCC(=O)O)c2)c(OC)c1 [Example 5, (E)-2,4,6-Trimethoxystyryl-N-[(3-carboxymethylamino)-4-methoxyphenyl]sulfonamide] | + (A (+) in the table indicates that the compound showed tumor cell killing activity at a concentration of less than 20 micromolar) | + (A (+) in the table indicates that the compound showed tumor cell killing activity at a concentration of less than 20 micromolar) | + (A (+) in the table indicates that the compound showed tumor cell killing activity at a concentration of less than 20 micromolar) | + (A (+) in the table indicates that the compound showed tumor cell killing activity at a concentration of less than 20 micromolar)
